According to patent US9156811B2 (priority 2008, dated 2015):
Where two headings read alike, the source gives them in different places.

What was measured:
[1] = tested on: Trypanosome (T. brucei brucei); assay: In-vitro antitrypanosomal efficacy assay (cell growth, resazurin); format: cell-based; settings: T. brucei cell growth
Procedure: To column 12, 200 μl media was added to provide a no cells control. Plates were then incubated at 37° C. in an atmosphere of 5% CO2 for 69 hours, before the addition of 20 μl of 500 μM rezasurin solution, and a further incubation period of 4 hours. […] Concentration effect curves were fitted using non-linear regression using XLFit 4.2 and EC50 values determined.

[2] = target: T. brucei N-myristoyl transferase (Trypanosoma brucei brucei (strain 927/4 GUTat10.1), UniProt Q388H8); assay: biochemical; format: biochemical; settings: read-out: IC50 (μM) NMT Enzyme
Sequence of T. brucei N-myristoyl transferase (Q388H8 1-446): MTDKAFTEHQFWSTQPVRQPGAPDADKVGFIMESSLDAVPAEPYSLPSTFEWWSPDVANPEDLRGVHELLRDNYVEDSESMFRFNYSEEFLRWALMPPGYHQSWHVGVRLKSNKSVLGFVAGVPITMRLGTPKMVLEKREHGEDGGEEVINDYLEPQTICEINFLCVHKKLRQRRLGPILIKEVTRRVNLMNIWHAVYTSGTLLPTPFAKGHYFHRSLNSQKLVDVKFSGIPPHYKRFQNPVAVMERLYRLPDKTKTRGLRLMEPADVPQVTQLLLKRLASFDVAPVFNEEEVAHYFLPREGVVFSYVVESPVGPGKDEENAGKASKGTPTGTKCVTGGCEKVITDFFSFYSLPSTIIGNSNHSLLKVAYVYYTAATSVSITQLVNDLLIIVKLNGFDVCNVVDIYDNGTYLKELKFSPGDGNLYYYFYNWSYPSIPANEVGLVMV

[3] = value printed without enzyme tag in the NMT Enzyme column (taken as T. brucei NMT)
[4] = value with no enzyme tag in the cell, taken as T. brucei NMT

SMILES	ED50 (μM) T. brucei [1] [µM]	IC50 [2, 3] [µM]	IC50 [2, 4] [µM]	IC50 [2] [µM]
COc1ccc(SCc2ccc([S+](=O)([O-])Nc3c(C)nn(C)c3C)cc2)cc1OC [DDD85604]	>1	3.3		
Cc1nn(C)c(C)c1N(C)[S+](=O)([O-])c1ccc(N2CCc3c(N)cccc3C2)nc1 [DDD85605]	2.4	0.57		
Cc1nn(C)c(C)c1N(CCc1ccccc1)[S+](=O)([O-])c1c(Cl)cc(Br)cc1Cl [DDD85606]	3.6	4.9		
Cc1nn(C)c(C)c1N(CCO)[S+](=O)([O-])c1c(Cl)cc(Br)cc1Cl [DDD85607]	7.1	1.1		
Cc1nn(C)c(C)c1N[S+](=O)([O-])c1ccc(CSc2ccc(C(C)(C)C)cc2)cc1 [DDD85609]	>1	69.5		
Cc1nn(C)c(C)c1N[S+](=O)([O-])c1ccc(CSc2ccc(Cl)cc2Cl)cc1 [DDD85610]	>1	61.6		
Cc1ncccc1N[S+](=O)([O-])c1ccc(NCc2ccc3[nH]ccc3c2)nc1 [DDD85611]	>1	7.2		
Cc1nn(C)c(C)c1N[S+](=O)([O-])c1ccc(NC2CCc3ccccc32)nc1 (stereo not drawn) [DDD85613]	>1	6.6		
Cc1nn(C)c(C)c1N[S+](=O)([O-])c1ccc(N(C)Cc2ccc(CN(C)C)cc2)nc1 [DDD85624]	1.5	0.36		
Cc1nn(C)c(C)c1N(CC1CC1)[S+](=O)([O-])c1c(Cl)cc(Br)cc1Cl [DDD85625]	4.6	0.67		
Cc1nn(C)c(C)c1N[S+](=O)([O-])c1ccc(N(C)CCCN(C)C)nc1 [DDD85626]	1.9	0.61		
Cc1nn(C)c(C)c1N[S+](=O)([O-])c1ccc(NCCCN2CCN(C)CC2)nc1 [DDD85627]	0.62	0.12		
Cc1nn(C)c(C)c1N[S+](=O)([O-])c1ccc(COCCn2ccnc2)cc1 [DDD85628]	>1	11.1		
Cc1nn(C)c(C)c1N[S+](=O)([O-])c1ccc(NCCCN(C)C)nc1 [DDD85629]	38.0	2.4		
Cc1nn(C)c(C)c1N[S+](=O)([O-])c1ccc(NCCCn2ccnc2)nc1 [DDD85633]	>50		2	
COc1cc(C)c([S+](=O)([O-])Nc2ccc(C)nc2C)c(C)c1C [DDD85634]	>1		27.9	
Cc1nn(C)c(C)c1N[S+](=O)([O-])c1ccc(CNCCN(C)C)cc1 [DDD85640]	>50		3.3	
Cc1nn(C)c(C)c1N[S+](=O)([O-])c1ccc(CNCCN2CCCCC2)cc1 [DDD85643]	>1		8	
Cc1nn(C)c(C)c1N[S+](=O)([O-])c1ccc(COCCCN(C)C)cc1 [DDD85647]	>1		66.1	
Cc1nn(C)c(C)c1N[S+](=O)([O-])c1ccc(COCCCN2CCN(C)CC2)cc1 [DDD85648]	>1		47.7	
Cc1nn(C)c(C)c1N[S+](=O)([O-])c1ccc(COCCN2CCN(C)CC2)cc1 [DDD85649]	>1		40	
Cc1nn(C)c(C)c1N[S+](=O)([O-])c1ccc(COCCCCN(C)C)cc1 [DDD85650]	>1		52.6	
Cc1nn(C)c(C)c1N[S+](=O)([O-])c1ccc(NCc2cccc(CN3CCCCC3)c2)nc1 [DDD85651]	9.8		1.8	
Cc1nn(C)c(C)c1N[S+](=O)([O-])c1ccc(-c2cccc(C=O)c2)cc1 [DDD86210]	>1		6	

SMILES	ED50 (μM) T. brucei [1] [µM]	IC50 [2, 3] [µM]	IC50 [2, 4] [µM]	IC50 [2] [µM]
Cc1nn(C)c(C)c1N[S+](=O)([O-])c1ccc(NCCCN2CCN(c3ccccc3)CC2)nc1 [DDD86291]	>1		1	
Cc1nn(C)c(C)c1NS(=O)(=O)c1c(Cl)cc(-c2ccnc(N3CCC(N(C)C)C3)c2)cc1Cl (stereo not drawn) [DDD86292, 2,6-Dichloro-4-[2-(3-dimethylamino-pyrrolidin-1-yl)-pyridin-4-yl]-N-(1,3,5-trimethyl-1 H-pyrazol-4-yl)-benzenesulfonamide]	>1		1	
Cc1nn(C)c(C)c1N[S+](=O)([O-])c1ccc(NCCO)nc1 [DDD86293]	>1		1	
Cc1nn(C)c(C)c1N[S+](=O)([O-])c1ccc(NCCCNC2CCN(Cc3ccccc3)C2)nc1 (stereo not drawn) [DDD86295]	>1		1	
CNCCNc1cc(-c2cc(Cl)c([S+](=O)([O-])Nc3c(C)nn(C)c3C)c(Cl)c2)ccn1 [DDD86297, 2,6-Dichloro-4-[2-(2-methylamino-ethylamino)-pyridin-4-yl]-N-(1,3,6-trimethyl-1H-pyrazol-4-yl)-benzenesulfonamide]	>1		1	
Cc1nn(C)c(C)c1N[S+](=O)([O-])c1ccc(NCCN2CCN(C(C)C)CC2)nc1 [DDD86298]	>1		1	
Cc1nn(C)c(C)c1NS(=O)(=O)c1c(Cl)cc(-c2ccnc(NCCNc3ccccn3)c2)cc1Cl [DDD86302, 2,6-Dichloro-4-{2-[2-(pyridin-2-ylamino)-ethylamino]pyridin-4-yl}-N-(1,3,5-trimethyl-1 H-pyrazol-4-yl)-benzenesulfonamide]	>1		1	
Cc1nn(C)c(C)c1N[S+](=O)([O-])c1ccc(NCCN2CCN(C)CC2c2ccccc2)nc1 (stereo not drawn) [DDD86304]	>1		1	
Cc1nn(C)c(C)c1NS(=O)(=O)c1c(Cl)cc(-c2ccnc(NCCCn3ccnc3)c2)cc1Cl [DDD86308, 2,6-Dichloro-4-[2-(3-imidazol-1-yl-propylamino)-pyridin-4-yl]-N-(1,3,5-trimethyl-1H-pyrazol-4-yl)-benzenesulfonamide]	>1		1	
Cc1nn(C)c(C)c1N[S+](=O)([O-])c1ccc(NCCN2CCN(C(=O)OC(C)(C)C)CC2)nc1 [DDD86310]	>1		1	
CC(=O)c1cccc(Nc2ccc([S+](=O)([O-])Nc3c(C)nn(C)c3C)cn2)c1 [DDD86311]	>1		1	
Cc1nn(C)c(C)c1N[S+](=O)([O-])c1c(Cl)cc(C#CCN2CCCCC2)cc1Cl [DDD86476]	>1		5.9	
Cc1nn(C)c(C)c1N(CCCO)[S+](=O)([O-])c1ccc(-c2ccnc(N3CCNCC3)c2)cc1 [DDD87755, N-(3-Hydroxy-propyl)-4-(2-piperazin-1-yl-pyridin-4-yl)-N-(1,3,5-trimethyl-1H-pyrazol-4-yl)-benzenesulfonamide]	0.98		0.05	
Cc1nn(C)c(C)c1NS(=O)(=O)c1ccc(-c2ccnc(N3CCNC(c4ccccc4)C3)c2)cc1 (stereo not drawn) [DDD87756, 4-[2-(3-Phenyl-piperazin-1-yl)-pyridin-4-yl]-N-(1,3,5-trimethyl-1H-pyrazol-4-yl)-benzenesulfonamide]	>1			0.76
Cc1nn(C)c(C)c1N[S+](=O)([O-])c1ccc(N2CCC(N3CCN(Cc4ccccc4)CC3)C2)nc1 (stereo not drawn) [DDD87760]	>1		34.4	
Cc1nn(C)c(C)c1NS(=O)(=O)c1c(Cl)cc(-c2cccc3c2CCNC3)cc1Cl [DDD87762]	>1		2.6	
Cc1nn(C)c(C)c1N[S+](=O)([O-])c1ccc(N2CCC(N3CCNCC3)C2)nc1 (stereo not drawn) [DDD88008]	18.0		0.11	
Cc1noc(C)c1N[S+](=O)([O-])c1ccc(CCCN2CCN(C)CC2)cc1 [DDD88190]	31.0		1.1	
Cc1c(N[S+](=O)([O-])c2c(Cl)cc(Br)cc2Cl)cnn1C [DDD88315]	>10		20	
Cc1cc(Br)ccc1[S+](=O)([O-])Nc1c(C)nn(C)c1C [DDD88316]	>10		12.7	
Cc1nn(C)c(C)c1N[S+](=O)([O-])c1ccc(Br)cc1F [DDD88318]	>10		10	
Cc1ccnc(C)c1N[S+](=O)([O-])c1c(Cl)cc(-c2ccnc(N3CCNCC3)c2)cc1Cl [DDD88319]	0.69		0.045	
Cc1nn(C)c(C)c1N[S+](=O)([O-])c1c(F)cc(-c2ccnc(N3CCNCC3)c2)cc1F [DDD88323]	0.005		0.004	
Cc1nn(C)c(C)c1N[S+](=O)([O-])c1ccc(-c2cccc(CN)c2)cc1 [DDD88560]	2.15		0.054	
